Assays:
wild type K-Ras = target: T1, wild type K-Ras (Homo sapiens, UniProt P01116); assay: Covalent modification of recombinant wild-type K-Ras by whole-protein mass spectrometry; format: binding; conditions: 24-h incubation, 100 μM compound, 23° C., pH 7.5
T1 construct: human K-Ras (wildtype, aa 1-169); 6xHis tag + TEV cleavage site (N, cleaved yes); made in house; host or cells: E. coli BL21(DE3)

[1] = test system: H358 cells (heterozygous KRAS p.G12C); assay: Immunoblot in H358 cells; format: cell-based; conditions: 10 μM, 2 h
Description: Cells were passed for at least two generations after cryorecovery before they were used for assays. All cell lines were tested mycoplasma negative using MycoAlert™ Mycoplasma Detection Kit (Lonza). When indicated, cells were treated with drugs at 40-60% confluency at a final DMSO concentration of 1%. At the end of treatment period, cells were placed on ice. Unless otherwise indicated, adherent cells were washed once with ice-cold PBS (1 mL), scraped with a spatula, and pelleted by centrifugation (500×g, 5 min). Suspension cells were pelleted by centrifugation (500×g, 5 min), washed with 1 mL ice-cold PBS, and pelleted again. Cells were lysed in RIPA buffer supplemented with protease and phosphatase inhibitors (cOmplete and phosSTOP, Roche) on ice for 10 min. For RBD pulldown experiments, cells were lysed in Co-IP Lysis Buffer in lieu of RIPA buffer. Lysates were clarified by high-speed centrifugation (19,000×g, 10 min). Concentrations of lysates were determined with protein BCA assay (Thermo Fisher) and adjusted to 2 mg/mL with additional RIPA buffer (or Co-IP Lysis Buffer). […]
Unless otherwise noted, SDS-PAGE was run with Novex 16% Bis-Tris gel (Invitrogen) in MES running buffer (Invitrogen) at 200 V for 60 min following the manufacturer's instructions. […] The membrane was washed three times with TBST (5 min each wash) and imaged on a Li-COR Odyssey fluorescence imager.

K-Ras(G12S) = K-Ras(G12S) (Homo sapiens, UniProt P01116, G12S); assay: Covalent modification of recombinant K-Ras(G12S) by whole-protein mass spectrometry; format: binding; design: human K-Ras (G12S, aa 1-169); 6xHis tag + TEV cleavage site (N, cleaved yes); made in house; host or cells: E. coli BL21(DE3); conditions: 23° C.
Procedure, shortened: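 Recombinant K-Ras diluted to 400 nM or 1 μM in 20 mM HEPES pH 7.5, 150 mM NaCl, 1 mM MgCl2 and incubated with compound added from 100× DMSO stock. Modification extent measured by electrospray whole-protein mass spectrometry; kinetics used 1:1 mixing with 400 nM protein and injection time stamps for elapsed time.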

[2] = test system: parental Ba/F3 cells (with IL-3); assay: Cell viability assay (CellTiter-Glo), parental Ba/F3 cells; format: cell-based, murine; conditions: Mus musculus, BaF3; +10 ng/mL IL-3, 72 h; read-out: IC50, growth of parental Ba/F3 cells
Description: Cells were seeded into 96-well white flat bottom plates (1,000 cells/well) (Corning) and incubated overnight. […] Cell viability was assessed using a commercial CellTiter-Glo (CTG) luminescence-based assay (Promega). Briefly, the 96-well plates were equilibrated to room temperature before the addition of diluted CTG reagent […] (1:4 CTG reagent:PBS). Plates were placed on an orbital shaker for 30 min before recording luminescence using a Spark 20M (Tecan) plate reader.

O=C1O[C@H]2CN(c3nc(OCC45CCCN4CCC5)nc4c(F)c(-c5cccc6cccc(Cl)c56)ncc34)CC[C@@H]12 [5′]
% covalent modification of wild type K-Ras (wild type K-Ras): 0%
phospho-Erk in H358 cells [1]: weak inhibition of phospho-Erk
covalent reaction with K-Ras(G12S)·GDP (K-Ras(G12S); 10 μM compound): enhanced reaction
time to 100% modification of K-Ras(G12S)·GDP (K-Ras(G12S); 10 μM): < 10 min
% covalent modification of K-Ras G12S (K-Ras(G12S); 24-h incubation, 100 μM compound, pH 7.5): 100%
IC50 [2]: 12.5 µM
